Measurements reported in patent US20110117195A1, “METHOD FOR IMPROVING MYOCARDIAL INFARCTION BY INTRAMYOCARDIAL OR TRANSENDOCARDIAL INJECTION OF PEPTIDE NANOFIBERS” (National Cheng Kung University, priority 2009, published 2011).

Tests used:
Assay type in all cases: in vivo
[1] = test system: Lanyu mini-pig models of experimental myocardial infarction (MI); assay: Cardiac catheterization (hemodynamic parameters) after coronary artery ligation in mini-pigs
Protocol: (§1) Sexually matured Lanyu mini-pigs (about 5 months old, body weight: 21.8±3.1 kg), were divided into 3 groups: the first group is sham operation, suturing was performed without ligation (n=4); the second group is mid-left coronary artery ligation (for simulating myocardial infarction, MI) immediately followed with injection of normal saline solution (MI+NS, n=4); and the third group is mid-left coronary artery ligation immediately followed with injection of 1% peptide nanofibers solution (MI+NFs, n=5) in the entire infarcted area with a total of 2 ml NFs divided by 40 delivery sites (50 ul for each site), wherein the sequence of peptide NFs is AcN-RARADADARARADADA-NH2. Cardiac functions were assessed by echocardiography immediately after MI and together with cardiac catheterization 4 weeks later.
(§2) In the preferred embodiment of the present invention, the peptide nanofibers solution contains peptide nanofibers which can form a biologically compatible peptide hydrogel, wherein the biologically compatible peptide hydrogel is prepared by: dissolving powders of the self-assembling peptide nanofibers in a buffer solution, such as pH 7.4 phosphate buffered saline (PBS) solution; and mixing the powders of the self-assembling peptide nanofibers with the buffer solution by sonication (100 W, 10 mins), so as to obtain a hydrogel solution of the biologically compatible peptide hydrogel (i.e. the peptide nanofibers solution), wherein the percentage of the self-assembling peptide nanofibers in the solution can be 0.1-10% by weight of the solution, preferably 0.5-5% by weight, and more preferably 1.0% by weight; and wherein the volume of the solution of the biologically compatible peptide hydrogel is preferably 0.1-10 ml, and more preferably 2 ml. In the embodiment, the percentage of the self-assembling peptide nanofibers in the solution is 1.0% by weight, and the volume of the solution of the biologically compatible peptide hydrogel is 2 ml. Meanwhile, the buffer solution (PBS) is added with monovalent metal cation compound of a concentration sufficient to promote the self-assembly of the self-assembling peptide nanofibers, wherein the monovalent metal cation is selected from the group consisting of: lithium (Li^+), sodium (Na^+) and potassium (K^+). In the embodiment, the monovalent metal cation compound is sodium […].
(§3) Besides, the pharmaceutical composition of the second and third groups is injected to a plurality of delivery sites in the entire infarcted area of myocardium tissue, respectively, wherein the number of the delivery sites is preferably ranged between 10 and 100, and more preferably 40, without limitation thereto. The plurality of delivery sites in the entire infarcted area is advantageous to increase the distribution density to support materials (e.g. peptide nanofibers). In addition, the infarcted area of myocardium tissue is preferably a mid-left portion of myocardium tissue of an injured heart with myocardial infarction, but also can be any infarcted area of the heart. The self-assembling peptide nanofibers (AcN-RARADADARARADADA-NH2) are 16 amino acids in length, but also can be 8-200 amino acids in length, and preferably 12-32 amino acids in length. […]

[2] = test system: Lanyu mini-pig models of experimental myocardial infarction (MI); assay: Echocardiography after coronary artery ligation in mini-pigs
Protocol: as §1, §2, §3

[3] = test system: Lanyu mini-pig models of experimental myocardial infarction (MI); assay: Immunohistological index (myocardial capillary density) after coronary artery ligation in mini-pigs
Protocol: as §1, with “later. […]” for “later.”

[4] = Table 1, 28 days after infarction, 2 ml intramyocardial in 40 sites, in mmHg/s (unit assumed)
[5] = Table 1, 28 days after infarction, 2 ml intramyocardial in 40 sites
[6] = one month after MI, P<0.01 vs MI+NS

With “AcN-RARADADARARADADA-NH2 (Ac-RARADADARARADADA-NH2) [MI + NFs, self-assembling peptide nanofibers forming a hydrogel]” the “Emax (maximal chamber elasticity)” value ([1]; Table 1, 28 days after infarction, 2 ml intramyocardial in 40 sites, in mmHg/mL (unit assumed)) was 2.80 ± 1.43, the “+dP/dt Max” value [1, 4] was 1458 ± 154 and the “−dP/dt Max” value [1, 4] was −1850 ± 94. For the same substance, the “diastolic function and ventricular remodeling” value ([1]; one month after MI, end-diastolic and end-systolic volumes, −dP/dt Max, Emax) was “significantly improved”, the “systolic function (ejection fraction and +dP/dt Max) compared to the (MI+NS) group” value ([1]; one month after MI, no significant difference) was “only modest improvement” and the “E.F. (ejection fraction)” value [2, 5] was 47 ± 8. It also gave an IVS-D (thickness of inter-ventricular septum, diastolic) [2, 5] of 0.6 ± 0.12 cm, an IVS-S (thickness of inter-ventricular septum, systolic) [2, 5] of 0.7 ± 0.13 cm and a thickness of inter-ventricular septum on diastolic (IVS-D) phase [2, 6] of 0.6 ± 0.12 cm. The thickness of inter-ventricular septum on systolic (IVS-S) phase [2, 6] was 0.7 ± 0.13 cm, the “M.C.D. (myocardial capillary density)” value [3, 5] was 286 ± 179 number/mm^2 and the “myocardial capillary density (M.C.D.)” value ([3]; one month after MI, in words) was “significantly increased”.
